Laboratory results as given in US20130097726A1, “METHODS AND COMPOSITIONS FOR WEED CONTROL” (priority 2011, published 2013).

Test system: Glyphosate-sensitive Palmer amaranth (A. palmeri R-22) plants
Assay: Topical ssDNA HPPD oligonucleotide mixture with or without mesotrione or atrazine: plant height / growth reduction
Type: in vivo, Amaranthus palmeri
Conditions: twelve days after treatment
Protocol: Glyphosate-sensitive Palmer amaranth (A. palmeri R-22) plants were grown in the greenhouse (30/20 C day/night T; 14 hour photoperiod) in 4 inch square pots containing Sun Gro® Redi-Earth and 3.5 kg/cubic meter Osmocote® 14-14-14 fertilizer. Palmer amaranth plants at 5 to 10 cm in height were pre-treated with a mixture of eight 8 short (21-22mer) single-strand antisense oligo DNA polynucleotides (ssDNAas) targeting HPPD shown in Table 2 as HPPD_OLIGO1-8 (SEQ ID NO: 1083-1090, respectively) at two concentrations, 16 nmol and 80 nmol, formulated in 10 millimolar sodium phosphate buffer (pH 6.8) containing 2% ammonium sulfate and 0.5% Silwet L-77. Plants were treated manually by pipetting 10 μL of polynucleotide solution on four fully expanded mature leaves, for a total of 40 microliters of solution per plant. Twenty-four and forty-eight hours later, the plants were treated with mesotrione (Callisto®, 4 lb ai per gallon; HPPD inhibitor) at 13 g ai/ha, or atrazine (Aatrex® Nine-0®, 90% w/w ai; Photosystem II inhibitor) at 170 g ai/ha using a track-sprayer equipped with a 9501E nozzle and calibrated to deliver 93 liters of solution per hectare. […] Plant height was determined just before ssDNA treatment and at intervals upto twelve days after herbicide treatments to determine effect of the oligonucleotide and herbicide treatments.

CCNc1nc(Cl)nc(NC(C)C)n1 [atrazine]
control (growth reduction) (atrazine alone 170 g ai/ha): 29%

CS(=O)(=O)c1ccc(C(=O)C2C(=O)CCCC2=O)c([N+](=O)[O-])c1 [mesotrione]
control (growth reduction) (mesotrione alone 13 g ai/ha): 48%
